Assay results from patent publication US6989371B1, “Bombesin analogs for treatment of cancer” (Dabur Research Foundation, priority 1996, dated 2006).
Non-standard residues stand in square brackets, D forms with d. Residues, ends and D or L forms follow the SMILES beside them. Aib = CC(C)(N)C(=O)O

Columns and labels:
Test in all cases: MTT cytotoxicity assay, 72 hours (Example 13)
Assay type in all cases: cell-based, human
A549 (lung) = tested on: A549 (lung)
Procedure: (§1) The cytotoxic activity of other synthesized bombesin analogs was tested on eight human tumor cell lines namely HT-29, SW620, PTC (all colon), PA-1 (ovary), A549 (lung), HBL100(breast), MOLT-4 (leukemia) and DU145 (prostate). The tumor cells were collected at exponential growth phase and resuspended in medium (1.5×10^6) cells/ml in RPMI 1640 containing 10% FBS). 150 μl of medium was added to the wells of a 96-well tissue culture plate (Nunc, Denmark) followed by 30 μl of cell suspension. The plate was left in incubator (37° C., 5% CO2 overnight. 20 μl of the peptide (10^−7×10^×10M concentration) was added to marked wells of the 96-well plate. Each concentration was plated in cells served as blanks. A total volume of 200 μl was ensured in each well and plate was left in incubator (37° C., 5% CO2). After 72 hours of incubation an MTT assay was performed and percentage cytotoxicity was calculated with respect to control cells. Following tables show the cytotoxicity achieved on various cell lines at different concentrations.

DU145 (prostate) = tested on: DU145 (prostate)
Procedure: as §1

HBL100 (breast) = settings: HBL
Procedure: as §1

HT-29 (colon) = tested on: HT-29 (colon)
Procedure: as §1

MOLT-4 (leukemia) = tested on: MOLT-4 (leukemia)
Procedure: as §1

PA-1 (ovary) = tested on: PA-1 (ovary)
Procedure: as §1

PTC (colon) = tested on: PTC (colon)
Procedure: as §1

SW620 (colon) = tested on: SW620 (colon)
Procedure: as §1

In the case of CC(C)C[C@H](NC(=O)[C@H](Cc1c[nH]cn1)NC(=O)CNC(=O)[C@@H](NC(=O)C(C)(C)NC(=O)[C@H](Cc1c[nH]c2ccccc12)NC(=O)[C@H](CCC(N)=O)NC(=O)[C@H](N)Cc1ccccc1)C(C)C)C(N)=O [SEQ ID: 4, D-Phe-Gln-Trp-Aib-Val-Gly-His-Leu-NH2] (H-[dF]QW[Aib]VGHL-NH2; N-terminus assumed), the “Percent Cytotoxicity” value (A549 (lung); A549, 1 nM) is reported as 22.7 ± 2.9%, the “Percent Cytotoxicity” value (A549 (lung); A549, 10 nM) is reported as 20.6 ± 1.9% and the “Percent Cytotoxicity” value (A549 (lung); A549, 100 nM) is reported as 20.0 ± 2.2%. The “Percent Cytotoxicity” value (A549 (lung); A549, 100 PM) was 20.7 ± 4.2%, the “Percent Cytotoxicity” value (DU145 (prostate); DU145, 1 nM) was 22.8 ± 4.1% and the “Percent Cytotoxicity” value (DU145 (prostate); DU145, 10 nM) was 23.4 ± 3.3%. For the same compound, the “Percent Cytotoxicity” value (DU145 (prostate); DU145, 100 nM) was 24.9 ± 3.2%, the “Percent Cytotoxicity” value (DU145 (prostate); DU145, 100 PM) was 23.2 ± 3.7% and the “Percent Cytotoxicity” value (HBL100 (breast); 1 nM) was 30.6 ± 4.2%. For the same compound, the “Percent Cytotoxicity” value (HBL100 (breast); 10 nM) was 33.2 ± 5.2%, the “Percent Cytotoxicity” value (HBL100 (breast); 100 nM) was 25.0 ± 3.1% and the “Percent Cytotoxicity” value (HBL100 (breast); 100 PM) was 33.0 ± 3.6%. The “Percent Cytotoxicity” value (HT-29 (colon); HT29, 1 nM) was 39.6 ± 4.3%, the “Percent Cytotoxicity” value (HT-29 (colon); HT29, 10 nM) was 38.9 ± 7.3% and the “Percent Cytotoxicity” value (HT-29 (colon); HT29, 100 nM) was 38.6 ± 5.3%. The “Percent Cytotoxicity” value (HT-29 (colon); HT29, 100 PM) was 43.3 ± 4.4%, the “Percent Cytotoxicity” value (MOLT-4 (leukemia); MOLT4, 1 nM) was 19.3 ± 1.8% and the “Percent Cytotoxicity” value (MOLT-4 (leukemia); MOLT4, 10 nM) was 28.7 ± 4.2%. The “Percent Cytotoxicity” value (MOLT-4 (leukemia); MOLT4, 100 nM) was 16.2 ± 0.6%, the “Percent Cytotoxicity” value (MOLT-4 (leukemia); MOLT4, 100 PM) was 28.5 ± 4.8% and the “Percent Cytotoxicity” value (PA-1 (ovary); PA-1, 1 nM) was 16.2 ± 2.9%. For the same compound, the “Percent Cytotoxicity” value (PA-1 (ovary); PA-1, 10 nM) was 4.3 ± 0.2%, the “Percent Cytotoxicity” value (PA-1 (ovary); PA-1, 100 nM) was 2.3 ± 2.9% and the “Percent Cytotoxicity” value (PA-1 (ovary); PA-1, 100 PM) was 12.6 ± 2.9%. For the same compound, the “Percent Cytotoxicity” value (PTC (colon); 1 nM) was 8.7 ± 1.5%, the “Percent Cytotoxicity” value (PTC (colon); 10 nM) was 2.1 ± 0.2% and the “Percent Cytotoxicity” value (PTC (colon); 100 nM) was 9.8 ± 1.7%. The “Percent Cytotoxicity” value (PTC (colon); 100 PM) was 14.9 ± 1.1%, the “Percent Cytotoxicity” value (SW620 (colon); SW620, 1 nM) was 27.8 ± 2.8% and the “Percent Cytotoxicity” value (SW620 (colon); SW620, 10 nM) was 23.2 ± 2.0%. For the same compound, the “Percent Cytotoxicity” value (SW620 (colon); SW620, 100 nM) was 34.3 ± 4.2% and the “Percent Cytotoxicity” value (SW620 (colon); SW620, 100 PM) was 30.4 ± 3.2%.
